Data reported in US7226923B2, “Phthalazinone derivatives” (Hoffman-La Roche Inc., priority 2004, dated 2007).

Assays:
HCT 116 cells = experiment: CellTiter-Glo assay in HCT 116 cells; assay type: cell-based, human; details: Homo sapiens, HCT-116, 120 h, 5 days incubation, 30 μM to 0.0015 μM
Text: CellTiter-Glo™ Assay in HCT 116 Cells
The CellTiter-Glo™ Luminescent Cell Viability Assay (Promega) is a homogeneous method of determining the number of viable cells in culture based on quantitation of the ATP present, which signals the presence of metabolically active cells.
HCT 116 cells (human colon carcinoma, ATCC-No. CCl-247) were cultivated in RPMI 1640 medium with GlutaMAX™ I (Invitrogen, Cat-No. 61870-010), 2.5% Fetal Calf Serum (FCS, Sigma Cat-No. F4135 (FBS)); 100 Units/ml penicillin/100 μg/ml streptomycin (=Pen/Strep from Invitrogen Cat. No. 15140). For the assay the cells were seeded in 384 well plates, 1000 cells per well, in the same medium. The next day the test compounds were added in various concentrations ranging from 30 μM to 0.0015 μM (10 concentrations, 1:3 diluted). After 5 days the CellTiter-Glo™ assay was done according to the instructions of the manufacturer (CellTiter-Glo™ Luminescent Cell Viability Assay, from Promega). In brief: the cell-plate was equilibrated to room temperature for approximately 30 minutes and than the CellTiter-Glo™ reagent was added. The contents were carefully mixed for 15 minutes to induce cell lysis. After 45 minutes the luminescent signal was measured in Victor 2, (scanning multiwell spectrophotometer, Wallac).
1st. Day: • Medium: RPMI 1640 with GlutaMAX™ I (Invitrogen, Cat-Nr. 61870), 5% FCS (Sigma Cat.-No. F4135), Pen/Strep (Invitrogen, Cat No. 15140). • HCT116 (ATCC-No. CCl-247): 1000 cells in 60 μl per well of 384 well plate (Greiner 781098, μClear-plate white) • After seeding incubate plates 24 h at 37° C., 5% CO2
2nd. Day: Induction (Treatment with Compounds, 10 Concentrations):
In order to achieve a final concentration of 30 μM as highest concentration 3.5 μl of 10 mM compound stock solution were added directly to 163 μl media. Then step e) of the dilution procedure described below, was followed.

Aurora A = target: T1, Aurora A (Homo sapiens, UniProt O14965); experiment: IC50 determination for inhibitors of Aurora A (96 MTP-ELISA); assay type: biochemical; details: His4-tagged full-length Aurora A 250 ng/ml, PKB-GSK2 200 nM, ATP 4 μM, 90 min at room temperature, read-out: IC50 Aurora A kinase inhibition
T1 construct: C-terminally Histidine4 (His4)-tagged Aurora A full-length protein
T1 sequence (O14965 1-403): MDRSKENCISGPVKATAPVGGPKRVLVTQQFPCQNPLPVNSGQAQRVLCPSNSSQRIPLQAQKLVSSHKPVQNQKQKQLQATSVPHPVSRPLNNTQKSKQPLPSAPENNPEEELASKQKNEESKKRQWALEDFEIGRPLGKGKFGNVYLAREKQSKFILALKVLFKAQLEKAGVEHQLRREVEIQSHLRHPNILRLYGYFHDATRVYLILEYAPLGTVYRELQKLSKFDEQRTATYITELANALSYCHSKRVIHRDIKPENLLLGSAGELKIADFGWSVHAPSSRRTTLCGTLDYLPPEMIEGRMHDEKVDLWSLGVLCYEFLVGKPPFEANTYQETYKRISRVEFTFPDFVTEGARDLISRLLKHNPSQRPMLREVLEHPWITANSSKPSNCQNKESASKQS
Protocol: IC50 Determination for Inhibitors of Aurora A
• Aurora A is a serine threonine kinase involved in spindle assembly and chromosome segregation.
The assay is a typically ELISA-type assay where biotinylated substrate (PKB-GSK2) is phosphorylated. Phosphorylation is detected by peroxidase (POD) labelled polyclonal antibody (PAK<M-Ig>S-IgG-POD) and phosphopeptide monoclonal antibody (Mab) (MAK<P-GSK>M-27E5-IgG). The assay is validated for IC50-determination.
Method • This assay is performed in 96-well format for IC50 determination with 5 samples (each with 8 concentrations by twofold testing), 100 μl incubation volume and the following plate layout: […]

Row | SMILES | IC50 (HCT 116 cells) [nM] | IC50 (Aurora A) [nM]
1 | Cc1cc(Nc2nn(Cc3ccc(F)cc3)c(=O)c3ccccc23)n[nH]1 [Example A-20, 2-(4-Fluoro-benzyl)-4-(5-methyl-1H-pyrazol-3-ylamino)-2H-phthalazin-1-one] | 100 to 10000 | 1 to 100
2 | Cc1cc(Nc2nn(Cc3ccccn3)c(=O)c3ccccc23)[nH]n1 [Example A-22, 4-(5-Methyl-2H-pyrazol-3-ylamino)-2-pyridin-2-ylmethyl-2H-phthalazin-1-one] | 100 to 10000 | 1 to 100
3 | Cc1cc(Nc2nn(-c3ccc(C(F)(F)F)cc3)c(=O)c3ccccc23)n[nH]1 [Example A-25, 4-(5-Methyl-1H-pyrazol-3-ylamino)-2-(4-trifluoromethyl-phenyl)-2H-phthalazin-1-one] | 100 to 10000 | 1 to 100
4 | Cc1cccc(-n2nc(Nc3cc(C)[nH]n3)c3ccccc3c2=O)c1 [Example B-2, 4-(5-Methyl-1H-pyrazol-3-ylamino)-2-m-tolyl-2H-phthalazin-1-one] | 780 | 1 to 100
5 | Cc1cc(Nc2nn(Cc3ccc([N+](=O)[O-])cc3)c(=O)c3ccccc23)n[nH]1 [Example B-3, 4-(5-Methyl-1H-pyrazol-3-ylamino)-2-(4-nitro-benzyl)-2H-phthalazin-1-one] | 100 to 10000 | 100 to 1000
6 | Cc1cc(Nc2nn(Cc3ccc(N)cc3)c(=O)c3ccccc23)n[nH]1 [Example C-1, 2-(4-Aminobenzyl)-4-(5-methyl-1H-pyrazol-3-ylamino)-2H-phthalazin-1-one] | 100 to 10000 | 1 to 100
7 | CC(=O)Nc1ccc(Cn2nc(Nc3cc(C)[nH]n3)c3ccccc3c2=O)cc1 [Example D-1, N-{4-[4-(5-Methyl-1H-pyrazol-3-ylamino)-1-oxo-1H-phthalazin-2-ylmethyl]-phenyl}-acetamide] | 4190 | 1 to 100
8 | Cc1cc(Nc2nn(C(C)C)c(=O)c3cc(F)ccc23)n[nH]1 [Example E-2, 7-Fluoro-2-isopropyl-4-(5-methyl-1H-pyrazol-3-ylamino)-2H-phthalazin-1-one] | 100 to 10000 | 1 to 100
9 | COc1cccc(C(=O)Cn2nc(Nc3cc(C)[nH]n3)c3ccccc3c2=O)c1 [Example E-5, 2-[2-(3-Methoxy-phenyl)-2-oxo-ethyl]-4-(5-methyl-1H-pyrazol-3-ylamino)-2H-phthalazin-1-one] | 100 to 10000 | 1 to 100
10 | Cc1cc(Nc2nn(CC(=O)c3ccc(OC(F)(F)F)cc3)c(=O)c3ccccc23)n[nH]1 [Example E-6, 4-(5-Methyl-1H-pyrazol-3-ylamino)-2-[2-oxo-2-(4-trifluoromethoxy-phenyl)-ethyl]-2H-phthalazin-1-one] | 10000 to 100000 | 100 to 1000
11 | Cc1cc(Nc2nn(CC(=O)c3ccc4c(c3)OCO4)c(=O)c3ccccc23)n[nH]1 [Example E-7, 2-(2-Benzo[1,3]dioxol-5-yl-2-oxo-ethyl)-4-(5-methyl-1H-pyrazol-3-ylamino)-2H-phthalazin-1-one] | 100 to 10000 | 100 to 1000
12 | Cc1cc(Nc2nn(CC(=O)c3ccccc3)c(=O)c3ccccc23)n[nH]1 [Example E-9, 4-(5-Methyl-1H-pyrazol-3-ylamino)-2-(2-oxo-2-phenyl-ethyl)-2H-phthalazin-1-one] | 100 to 10000 | 1 to 100
13 | Cc1cc(Nc2nn(CC(O)c3ccccc3)c(=O)c3ccccc23)n[nH]1 (stereo not drawn) [Example E-13, 2-(2-Hydroxy-2-phenyl-ethyl)-4-(5-methyl-1H-pyrazol-3-ylamino)-2H-phthalazin-1-one] | 10000 to 100000 | 100 to 1000
14 | Cc1cc(Nc2nn(C(C)C)c(=O)c3cc(N4CCOCC4)ccc23)n[nH]1 [Example F-1, 2-Isopropyl-4-(5-methyl-1H-pyrazol-3-ylamino)-7-morpholino-2H-phthalazin-1-one] | 100 to 10000 | 1 to 100
15 | Cc1cc(Nc2nn(C(C)C)c(=O)c3c(N4CCOCC4)cccc23)n[nH]1 [Example F-3, 2-Isopropyl-4-(5-methyl-1H-pyrazol-3-ylamino)-8-morpholino-2H-phthalazin-1-one] | 100 to 10000 | 1 to 100
16 | Cc1cc(Nc2nn(Cc3ccccc3)c(=O)c3cc(N4CCOCC4)ccc23)n[nH]1 [Example F-4, 2-Benzyl-4-(5-methyl-1H-pyrazol-3-ylamino)-7-morpholino-2H-phthalazin-1-one] | 100 to 10000 | 1 to 100
17 | Cc1cc(Nc2nn(C(C)C)c(=O)c3cc(N4CCN(C)CC4)ccc23)[nH]n1 [Example F-5, 2-Isopropyl-7-(4-methyl-piperazin-1-yl)-4-(5-methyl-2H-pyrazol-3-ylamino)-2H-phthalazin-1-one] | 100 to 10000 | 1 to 100
18 | Cc1cc(Nc2nn(C(C)C)c(=O)c3c(N(C)C)cccc23)n[nH]1 [Example F-8, 2-Isopropyl-4-(5-methyl-1H-pyrazol-3-ylamino)-8-dimethylamino-2H-phthalazin-1-one] | 420 | 1 to 100
19 | CC(C)n1nc(Nc2cc(C3CC3)n[nH]2)c2ccc(N(C)C)cc2c1=O [Example F-9, 4-(5-Cyclopropyl-2H-pyrazol-3-ylamino)-7-dimethylamino-2-isopropyl-2H-phthalazin-1-one] | 100 to 10000 | 1 to 100
20 | COc1ccc2c(Nc3cc(C)[nH]n3)nn(C(C)C)c(=O)c2c1 [Example G-1, 2-Isopropyl-4-(5-methyl-1H-pyrazol-3-ylamino)-7-methoxy-2H-phthalazin-1-one] | 100 to 10000 | 1 to 100
21 | Cc1cc(Nc2nn(C(C)C)c(=O)c3cc(OCc4ccccn4)ccc23)n[nH]1 [Example G-2, 2-Isopropyl-4-(5-methyl-1H-pyrazol-3-ylamino)-7-(pyridin-2-ylmethoxy)-2H-phthalazin-1-one] | 100 to 10000 | 1 to 100
22 | Cc1cc(Nc2nn(C(C)C)c(=O)c3cc(OCc4ccncc4)ccc23)n[nH]1 [Example G-4, 2-Isopropyl-4-(5-methyl-1H-pyrazol-3-ylamino)-7-(pyridin-4-ylmethoxy)-2H-phthalazin-1-one] | 100 to 10000 | 1 to 100
23 | Cc1cc(Nc2nn(C(C)C)c(=O)c3cc(OCCN4CCOCC4)ccc23)n[nH]1 [Example G-5, 2-Isopropyl-4-(5-methyl-1H-pyrazol-3-ylamino)-7-(2-morpholin-4-yl-ethoxy)-2H-phthalazin-1-one] | 100 to 10000 | 7
24 | Cc1cc(Nc2nn(C(C)C)c(=O)c3cc(OC(F)F)ccc23)n[nH]1 [Example G-7, 7-Difluoromethoxy-2-isopropyl-4-(5-methyl-1H-pyrazol-3-ylamino)-2H-phthalazin-1-one] | 100 to 10000 | 1 to 100
25 | COc1ccc2c(=O)n(C(C)C)nc(Nc3cc(C)[nH]n3)c2c1 [Example G-9, 2-Isopropyl-6-methoxy-4-(5-methyl-1H-pyrazol-3-ylamino)-2H-phthalazin-1-one] | 100 to 10000 | 1 to 100
26 | CSc1ccc2c(Nc3cc(C)[nH]n3)nn(C(C)C)c(=O)c2c1 [Example H-1, 2-Isopropyl-4-(5-methyl-1H-pyrazol-3-ylamino)-7-methylsulfanyl-2H-phthalazin-1-one] | 100 to 10000 | 1 to 100
27 | Cc1cc(Nc2nn(C(C)C)c(=O)c3cc(N(C)CCN4CCOCC4)ccc23)n[nH]1 [Example I-1, 2-Isopropyl-7-[methyl-(2-morpholin-4-yl-ethyl)-amino]-4-(5-methyl-1H-pyrazol-3-ylamino)-2H-phthalazin-1-one] | 100 to 10000 | 1 to 100
